Earlier results on one compound are cited in patent US8916562B2, “Methods and compositions for safe and effective treatment of telangiectasia” (Galderma Research & Development SNC, priority 2010, dated 2014).

For the data set the following is noted: brimonidine ophthalmic treatment, clinical trials.

Take `Brc1c(NC2=NCCN2)ccc2nccnc12` [brimonidine, (5-bromo-quinoxalin-6-yl)-(4,5-dihydro-1H-imidazol-2-yl)-amine]: the “patients reporting hypertension, palpitations and syncope” value is given as “less than 3%”.
